Laboratory results reported in patent US9161895B1, “Compositions and methods for improving overall tooth health and appearance” (The Procter & Gamble Company, priority 2008, dated 2015).

Assays:
[1] = in vitro erosion cycling protocol (citric acid challenge, transverse microradiography); parameters: species or system human; conditions: for Surface Loss: aqueous solutions of test organophosphates (control: dentifrice slurry 1:3) in pooled human saliva, 1% citric acid 10 min, 4 treatments/day, 5 days, depth of total mineral loss by TMR; for % reduction vs. regular F control: reduction in surface mineral loss relative to Fluoride toothpaste (1100 ppm F), aqueous solutions
Protocol: The effectiveness of compositions of the present invention containing an organophosphate was evaluated according to the following in vitro erosion cycling protocol.
Tooth (dentin or enamel) specimens are prepared by cutting 3 mm-4 mm cores from extracted, human teeth using a diamond core drill. The teeth, collected by local surgeons, are stored until use in a 5% Thymol solution maintained at room temperature. Specimens are mounted on lucite rods with a dental acrylic (Dura Base, Reliance Mfg. Co.) covering all sides except the surface. Course polishing with 600-grit silicon carbide-water slurry is used to remove approximately 50 microns of the outer specimen surface to ensure homogeneity among specimens. Specimens are then polished with gamma alumina (Buehler No. 3, B Gamma Micropolish Alumina) to a mirror-like finish.
Approximately ⅔ of the surface of each specimen is then covered with an acid resistant nail polish (placed in a mesial-distal fashion), leaving the center portion exposed as a treatment window. Covered portions remain covered with the acid-resistant nail polish throughout the experiment, serving as the control (untreated) areas for later microradiographic analysis. Specimens are randomly assigned to one of four treatment groups (4 specimens/group).
Each group of specimens is placed in 20 ml of fresh, pooled human saliva for at least one hour to form an initial layer of pellicle on the specimen surfaces prior to first day of treatment. To begin the treatment phase, aqueous solutions of the test organophosphates and dentifrice slurry (1:3) of the control fluoride toothpaste are prepared in fresh, pooled human saliva. Each treatment cycle consists of: dentifrice slurry (2 min)→rinse in deionized distilled H2O→saliva (1 hour)→erosion challenge (10 min)→rinse in ddiH2O→saliva. There are 4 treatments per day for a total of five treatment days. Dentifrice treatments consist of immersing the specimens into the dentifrice slurry for two minutes while specimens rotate at 75 rpm. The erosion challenge consists of soaking each treatment group in 12 ml of 1% Citric acid (at room temperature). At any time specimens are not in treatment, they remain in 20 ml of pooled, human saliva (stirred). The saliva is refreshed 3×/day. At night, each group of specimens remains immersed in saliva (stirred at room temperature).
After 5 days of treatment, thin cross-sections (80-120 μm thick) of each specimen are removed for assessment using standardized transverse microradiography (TMR) techniques. The exposed, treated area of each specimen is assessed with respect to complete mineral loss (erosion). Results with simple aqueous solutions of various alkyl phosphate compounds are presented in Table 1 as depth (in microns) of total mineral loss from the original specimen surface using the covered (untreated) areas as anatomical reference points. For comparison, percent reduction in surface mineral loss is calculated relative to water or fluoride containing compositions.

[2] = compatibility of organophosphate additives with stannous fluoride solutions: visual inspection and soluble tin in supernatant; assay type: physicochemical
Protocol: Aqueous formulations of polyvalent metal antibacterial agents were prepared and evaluated for clarity, chemical content and performance when mixed with various organophosphate additives as described above. The compositions comprise stannous fluoride as an example of polyvalent metal cation in combination with sodium gluconate or sodium tripolyphosphate as stabilizer and organophosphate additives. The compositions also contained zinc. […] Following addition of additives, the solutions were immediately inspected for any visual changes and then analyzed for soluble tin in the supernatants after centrifugation.

[3] = tested on: total aerobes (pooled saliva inoculum); test: bacterial time kill assay of CPC mouthrinse formulations; assay type: cell-based; conditions: 30 seconds
[4] = stannous fluoride/sodium gluconate solution, additive 1.0%
[5] = stannous fluoride/sodium tripolyphosphate solution, additive 1.0%
[6] = mouthrinse: organophosphate additive 0.05%, CPC 0.05%
[7] = mouthrinse: organophosphate additive 0.1%, CPC 0.1%
[8] = 0.454% stannous fluoride/3.0% sodium tripolyphosphate solution, additive 2.0%
[9] = stannous fluoride/sodium gluconate solution, additive 0.5%
[10] = 0.454% stannous fluoride/0.6% sodium gluconate solution, additive 2.0%
[11] = stannous fluoride/sodium gluconate solution, additive 0.2%
[12] = stannous fluoride/sodium tripolyphosphate solution, additive 0.08%

Laureth 3 phosphate [Foamphos L-3]
Surface Loss [1]: 13.25 μm | % reduction vs. regular F control [1]: 60.74% | Soluble Tin [2, 4]: 1371 ppm | Visual Inspection [2, 4]: Slight precipitate | Soluble Tin [2, 5]: 3496 ppm | Visual Inspection [2, 5]: Slight hazy | Log Reduction vs. water control [3, 6]: 2.04 | Log Reduction vs. water control [3, 7]: 2.05

Laureth-1 phosphate [MAP L210]
Surface Loss [1]: 25.75 μm | % reduction vs. regular F control [1]: 23.70% | Soluble Tin [2, 8]: 1888 ppm | Visual Inspection [2, 8]: Slight precipitate | Soluble Tin [2, 9]: 1419 ppm | Visual Inspection [2, 9]: Slight precipitate

Laureth-9 phosphate [Foamphos L-9]
clarity of stannous fluoride solutions (in words) [2]: clear solutions | soluble stannous (in words) [2]: high levels of soluble stannous | Soluble Tin [2, 10]: 3145 ppm | Visual Inspection [2, 10]: Slight hazy | Soluble Tin [2, 8]: 2511 ppm | Visual Inspection [2, 8]: Clear | Log Reduction vs. water control [3, 6]: 2.76 | Log Reduction vs. water control ([3]; mouthrinse: organophosphate additive 0.1%, CPC 0.05%): 2.76 | Log Reduction vs. water control [3, 7]: 2.76

PPG5 ceteareth-10 phosphate [CrodaphosSG]
Surface Loss [1]: 18.50 μm | % reduction vs. regular F control [1]: 45.19%

Potassium C12/13 phosphate [MAP 230K]
Surface Loss [1]: 10.50 μm | % reduction vs. regular F control [1]: 68.89% | Soluble Tin [2, 11]: 2015 ppm | Visual Inspection [2, 11]: Slight precipitate | Soluble Tin [2, 12]: 2814 ppm | Visual Inspection [2, 12]: Slight precipitate | Log Reduction vs. water control ([3]; mouthrinse: organophosphate additive 0.0335%, CPC 0.0165%): −0.05 | Log Reduction vs. water control ([3]; mouthrinse: organophosphate additive 0.04%, CPC 0.01%): −0.01

Sodium diLaureth-10 phosphate [DLP-10]
Soluble Tin [2, 10]: 2886 ppm | Visual Inspection [2, 10]: Clear

Trilaureth-4 phosphate [Hostaphat KL 340D]
Surface Loss [1]: 22.50 μm | % reduction vs. regular F control [1]: 33.33%
